Measured values published in patent publication US20020193343A1, “Controlled enzymatic degradation of guar galactomannan solutions using enzymatic inhibition” (priority 2000, published 2002).

How the values were obtained:
[1] = system: Aspergillus niger β-mannanase; assay: Enzyme degradation assay of guar solutions (viscosity reduction, steady shear rheology); type: biochemical; conditions: for inhibition of β-mannanase by TRIS variants (zero shear viscosity): 25 mM
Experimental: Enzyme Degradation Assay: Enzyme degradation was conducted with 7 mg/ml purified guar solutions containing 0.2 mg/ml sodium azide and 20 mM of the appropriate buffer. Guar solutions (19 ml) and enzyme stock solution were separately pre-incubated at 25° C. for 15 minutes, followed by the addition of 78.9 μl of enzyme stock solution to 19 ml of guar solution. The final enzyme concentration was 8.3×10^−4 U/ml. The mixture was shaken at an agitation speed of 2 at 25° C. for 1 hour in a New Brunswick gyrotory water bath shaker (Model G76). The enzyme was denatured after 1 hour by placing the enzyme/guar solution in a 90° C. water bath for 10 minutes. Enzyme hydrolysis was conducted at different pH's using various buffers: sodium acetate was used for pH 4 and 5, MES was used for pH 6, sodium phosphate was used for pH 7 and pH 8 and glycine was used for pH 9. If inhibitor, inhibitor variant or NaCl was used, the appropriate amount was added to the guar solution and the pH was readjusted to the appropriate value. […] After incubating each of these solutions at 25° C. for 30 minutes, 78.9 μl of this solution was added to 19 ml of guar solution and the enzymatic degradation of guar was analyzed following known techniques.
Rheology: Steady shear experiments were conducted using a Rheometrics Dynamic Stress Rheometer (DSR II) and a couette fixture with a cup diameter of 31.9 mm, a bob diameter of 29.5 mm and a bob length of 44.25 mm. All experiments were performed at 25° C. and all reported data were reproducible within 10%. Steady shear experiments were performed to determine viscosity, η, as a function of shear rate. […] To analyze a portion of the data, a normalized relative activity was defined using the viscosity data. At a particular pH, the viscosity difference (Δη) between the initial zero shear viscosity and the zero shear viscosity after 1 hour of degradation was used as the reference Δη. […] In summary, [formula]

[2] = from 25 degrees C. to 60 degrees C.
Source text: The relative amounts of the two forms are dependent on the pH of the solution and can be predicted by the Henderson-Hasselbach equation.

Tris(hydroxymethyl)aminomethane [base form of TRIS]
inhibition of β-mannanase, base form compared with hydrochloride form ([1]; base form of TRIS (without any salts)): exactly the same as that of TRIS in its hydrochloride form

NC(CO)(CO)CO [TRIS, 2-amino-2-hydroxymethyl-1,3-propanediol]
pH drop on temperature increase [2]: 0.98
inhibition of β-mannanase degradation of guar ([1]; 1 mM TRIS, pH 9, 1 hour): only minimal inhibition
viscosity reduction of guar by β-mannanase ([1]; 1 mM TRIS, pH 9, 5 hours): impeded viscosity reduction considerably
inhibition of β-mannanase degradation of guar ([1]; 5 mM TRIS, pH 9, 1 hour): inhibited the degradation considerably
viscosity reduction of guar by β-mannanase ([1]; 10 mM TRIS, pH 9, 5 hours): minimal viscosity reduction
viscosity reduction of guar by β-mannanase ([1]; 10 mM and higher TRIS, pH 9, 1 hour): no viscosity reduction
inhibition of enzyme degradation ([1]; 25mM TRIS, pH 9, enzyme 8.3×10^−4 U/ml): inhibits enzyme degradation for an extended period of time
viscosity reduction of guar by β-mannanase ([1]; 25 mM and higher TRIS, pH 9, 5 hours): no viscosity reduction
inhibition after mixing TRIS with the enzyme solution before addition to guar ([1]; TRIS to enzyme molar ratio 1:1 and 5:1, 30 minutes pre-incubation): neither of these solutions showed any inhibition
type of inhibition ([1]; degradation triggered after 5 hours by pH shift): reversible inhibitor
effect on enzymatic hydrolysis by β-mannanase ([1]; pH 4, 1 hour, 0-25 mM TRIS): did not impede enzymatic hydrolysis
inhibition of β-mannanase at pH 7 compared with pH 9 ([1]; pH 7, low concentrations of TRIS, 1 hour): better inhibitor of the enzyme than at pH 9
viscosity reduction of guar by β-mannanase with TRIS as buffer ([1]; pH 8, 1 hour, 7 mg/ml guar, 8.3×10^−4 U/ml enzyme): negligible reduction in viscosity

O=[N+]([O-])C(CO)(CO)CO [Tris (hydroxymethyl) nitromethane, reference compound]
inhibition of β-mannanase by TRIS variants (zero shear viscosity) ([1]; pH 9, 1 hour): no inhibition

O=C(O)CNC(CO)(CO)CO [N-tris (hydroxymethyl) methylglycine, reference compound]
inhibition of β-mannanase by TRIS variants (zero shear viscosity) ([1]; pH 9, 1 hour): no inhibition

[Cl-].[Na+] [NaCl]
effect of added salt on viscosity reduction by the enzyme ([1]; pH 4 and pH 9, same quantities as with TRIS hydrochloride): did not alter the viscosity reduction
